Tested on: American Blue (Evolvulus pilosus)
Assay: Flowering of American Blue pots in greenhouse after spraying with brassinazole solution
Assay type: in vivo
Conditions: sprayed 1000 g/ha on days 0, 7, 14 and 30
From the text: In the figure, □ indicates the result of a group treated with the flowering regulator of the present invention (brassinazole), and ∇ indicates the result of an untreated group. The vertical axis indicates a rate of flowering, and the horizontal axis indicates the number of days after the treatment. The arrows indicate the days when the flowering regulator is sprayed. Forty four pots of American Blue (Evolvulus pilosus) of about one month after cutting, which were purchased as-commercial products, were grown in a greenhouse at 22° C. under a natural light condition during the day and an artificial light condition during the night. These pots were divided into two groups, and 22 plants were sprayed with brassinazole [4-(4-chlorophenyl)-2-phenyl-3-(1,2,4-triazoyl)butan-2-ol] solution in an amount of 1000 g/ha on days 0, 7, 14 and 30. The other group (22 plants) was grown under the same conditions except for the treatment with the agent. As the brassinazole solution, 0.5 mg/ml aqueous solution containing 0.1% dimethyl sulfoxide and 0.1% Tween 20 was prepared, and diluted to a 1/10 concentration with water upon use and sprayed by using a spray in the predetermined amount.

In the case of `CC(O)(c1ccccc1)C(Cc1ccc(Cl)cc1)n1cncn1` (centres unmarked) [brassinazole, 4-(4-chlorophenyl)-2-phenyl-3-(1,2,4-triazoyl)butan-2-ol], the flowering accelerating effect (compared with the untreated plot) is reported as “clearly demonstrated” and the “flowering (rate of flowering)” value (greenhouse 22° C., 22 plants, untreated plot: flowering on only one plant on day 35) is reported as “flowering occurred after flower-bud formation”.
